{
  "source": "patent US5583158A",
  "about": "“Prostaglandin E1 analogues” (Taisho Pharmaceutical Co., Ltd., priority 1992, dated 1996)",
  "data": [
    {"tested_on": "rabbit platelet aggregation", "experiment": "Test for inhibition of rabbit platelet aggregation (ADP-induced, platelet-rich plasma, method of Born)", "assay_type": "cell-based, rabbit (New Zealand White-strain)", "conditions": "Oryctolagus cuniculus, ADP final concentration 5 μM, 37° C., 3 minutes preincubation, maximum aggregation within 5 minutes", "description": "Test Example [Test for inhibition of rabbit platelet aggregation]\nNew Zealand White-strain rabbits (groups of four rabbits each weighing 2.5-4.0 to kg) were tested. Blood was collected from the common carotid artery of the rabbits under on ether anesthesic, and mixed with 3.2to % sodium citrate in volume ratio of 9:1. The blood was centrifuged at 1,100 rpm for 15 minutes to give a platelet-rich plasma (PRP) as a supernatant.\nBlood platelet aggregation was determined according to the method of Born [Nature, Vol. 194, p. 927 (1962)]. To 275 to μl of PRP was added 1 μl of a solution of various concentrations of a test compound dissolved in ethanol; the mixture was stirred at 1,000 rpm at 37° C. for 3 minutes; then, in this state, 25 μl of an aggregation-inducing agent [adenosine diphosphate (ADP), final concentration: 5 μM] was added thereto to induce platelet aggregation; and by using an aggregometer, there was determined the maximum aggregation rate (the maximum change in light transmission within 5 minutes from the induction of platelet aggregation).\nThe aggregatian inhibition rate of the test compound was calculated from the maximum aggregation rate in the presence test compound relative to the maximum aggregation rate when ethanol was used instead of the solution of the test compound; the IC50 value of the test compound was determined from the concentration response curve.", "units": {"IC50": "nM"}, "values": [
      {"compound": "COC(=O)CSCCCC[C@H]1C(=O)C[C@@H](O)[C@@H]1C#C[C@@H](O)C[C@@H](C)CCC=C(C)C", "note": "[Compound 3, (17S)-20-Isopropylidene-17-methyl-13, 14-didehydro-3-thia-PGE1 methyl ester]", "IC50": 0.39},
      {"compound": "CCCCC(C)(C)C(O)C#C[C@H]1[C@H](O)CC(=O)[C@@H]1CCCCOCC(=O)OC", "note": "(stereo partly drawn) [Control D, reference compound]", "IC50": 1520},
      {"compound": "COC(=O)COCCCC[C@H]1C(=O)C[C@@H](O)[C@@H]1C#C[C@@H](O)CC1CCCCC1", "note": "[Control B, reference compound]", "IC50": 134},
      {"compound": "CC(C)=CCC[C@H](C)C[C@H](O)C#C[C@H]1[C@H](O)CC(=O)[C@@H]1CCCCSCC(=O)O", "note": "[Compound 4, (17S)-20-Isopropylidene-17-methyl-13,14-didehydro-3-thia-PGE1]", "IC50": 0.26},
      {"compound": "CCCC[C@@H](C)C[C@H](O)C#C[C@H]1[C@H](O)CC(=O)[C@@H]1CCCCOCC(=O)OC", "note": "[Compound 1, (17R)-17,20-Dimethyl-13,14-didehydro-3-oxa-PGE1 methyl ester]", "IC50": 0.6},
      {"compound": "CCCC[C@@H](C)C[C@H](O)C#C[C@H]1[C@H](O)CC(=O)[C@@H]1CCCCOCC(=O)O", "note": "[Compound 2, (17R)-17,20-Dimethyl-13,14-didehydro-3-oxa-PGE1]", "IC50": 0.66},
      {"compound": "COC(=O)COCCCC[C@H]1C(=O)C[C@@H](O)[C@@H]1C#C[C@@H](O)C[C@H](C)CCC=C(C)C", "note": "[Compound 5, (17R)-20-Isopropylidene-17-methyl-13, 14-didehydro-3-oxa-PGE1 methyl ester]", "IC50": 0.67},
      {"compound": "CC(C)=CCC[C@@H](C)C[C@H](O)C#C[C@H]1[C@H](O)CC(=O)[C@@H]1CCCCOCC(=O)O", "note": "[Compound 6, (17R)-20-Isopropylidene-17-methyl-13, 14-didehydro-3-oxa-PGE1]", "IC50": 1.27},
      {"compound": "CCCCC(C)[C@H](O)C#C[C@H]1[C@H](O)CC(=O)[C@@H]1CCCCSCC(=O)O", "note": "(stereo partly drawn) [Control C, reference compound]", "IC50": 911}
    ]}
  ]
}
